Series [1] deals with T1, Na^+ /H^+ exchanger (Oryctolagus cuniculus, UniProt P23791).
T1 construct: endogenous in cells; host or cells: rabbit erythrocytes (whole blood of cholesterol-fed White New Zealand rabbits)
As to the kind of experiment: Inhibition of the Na+/H+ exchanger of rabbit erythrocytes (amiloride-sensitive sodium influx, flame photometry). It is filed as cell-based, rabbit (White New Zealand). Conditions: 37° C., pH 7.4, hyperosmolar salt-sucrose medium. From the text:
White New Zealand rabbits (Ivanovas) received a standard diet containing 2% cholesterol for six weeks, in order to activate Na^+ /H^+ exchange and thus to enable the Na^+ influx into the erythrocytes via […] exchange to be determined by flame photometry. The blood was taken from the auricular arteries and made incoagulable by means of 25 IU of potassium heparin. A portion of each sample was used for duplicate determination of the hematocrit by centrifugation. Aliquots of in each case 100 μl were used to measure the initial Na^+ content of the erythrocytes.
In order to determine the amiloride-sensitive sodium influx, 100 μl of each blood sample were incubated at 37° C. and at pH 7.4 in each case in 5 ml of a hyperosmolar salt-sucrose medium (in mmol/l: 140 NaCl, 3 KCl, 150 sucrose, 0.1 ouabain, 20 trishydroxymethylaminomethane). The erythrocytes were then washed three times with ice-cold MgCl2 -ouabain solution (in mmol/l: 112 MgCl2, 0.1 ouabain) and hemolyzed in 2.0 ml of distilled water. The intracellular sodium content was determined by flame photometry.
The net Na^+ influx was calculated from the difference between the initial sodium values and the sodium content of the erythrocytes after incubation. The amiloride-inhibitable sodium influx was given by the difference of the sodium content of the erythrocytes after incubation with and without 3×10^-4 mol/l of amiloride. […]

The subject of series [2] is cardiac arrhythmias. Conditions: cited from earlier work.
For series [3], the system named is rat hearts. Conditions: isolated rat hearts, cited from earlier work.

T1 sequence (P23791 whole entry): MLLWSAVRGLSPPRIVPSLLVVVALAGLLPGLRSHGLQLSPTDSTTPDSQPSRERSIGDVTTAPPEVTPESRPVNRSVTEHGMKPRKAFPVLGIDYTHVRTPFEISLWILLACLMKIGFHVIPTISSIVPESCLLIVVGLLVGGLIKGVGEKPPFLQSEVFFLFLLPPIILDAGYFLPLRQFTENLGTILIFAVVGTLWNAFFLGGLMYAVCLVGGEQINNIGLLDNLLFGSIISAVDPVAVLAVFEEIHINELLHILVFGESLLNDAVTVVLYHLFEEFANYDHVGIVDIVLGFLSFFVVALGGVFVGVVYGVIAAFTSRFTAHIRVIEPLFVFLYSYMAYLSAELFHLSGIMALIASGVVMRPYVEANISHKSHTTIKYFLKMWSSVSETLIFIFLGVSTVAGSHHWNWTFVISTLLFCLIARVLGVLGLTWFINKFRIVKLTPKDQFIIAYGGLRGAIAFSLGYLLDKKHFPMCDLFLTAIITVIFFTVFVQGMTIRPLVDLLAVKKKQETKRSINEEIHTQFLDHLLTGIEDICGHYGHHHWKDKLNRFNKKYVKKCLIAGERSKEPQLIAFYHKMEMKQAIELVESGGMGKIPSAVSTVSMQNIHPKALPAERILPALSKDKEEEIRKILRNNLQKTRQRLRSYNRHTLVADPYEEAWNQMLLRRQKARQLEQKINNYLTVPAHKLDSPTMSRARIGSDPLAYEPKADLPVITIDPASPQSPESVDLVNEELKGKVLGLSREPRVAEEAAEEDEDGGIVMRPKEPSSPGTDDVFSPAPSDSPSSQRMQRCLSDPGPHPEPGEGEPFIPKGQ

In general, IC50 refers to the concentration that gives 50% inhibition. As for `NC(N)=NC(=O)c1ccc(Oc2ccc(F)cc2)c(S(=O)(=O)C(F)(F)F)c1` [Example 1, 4-(4-Fluorophenoxy)-3-trifluoromethylsulfonylbenzoylguanidine], the IC50 in series [1] worked out at 200 nM.
Same read-out and setting: in the case of `CC(C)c1ccc(C(=O)N=C(N)N)cc1S(=O)(=O)C(F)(F)F` [Example 2, 4-Isopropyl-3-trifluoromethylsulfonylbenzoylguanidine] it was 70 nM.
On to `NC(N)=NC(=O)c1nc(Cl)c(N)nc1N` [amiloride], for which the antiarrhythmic effect entry in series [2] (Circulation 79, 1257-63 (1989)) is “only weakly pronounced”. Further, the “side-effects accompanying antiarrhythmic effect” value in series [2] (in vivo) was “hypotensive and saluretic effects”. The “suppression of artificially induced ventricular fibrillation” value in series [3] (Eur. Heart J. 9 (suppl.1): 167 (1988)) is “completely suppressed”.
In the case of `CCN(c1nc(N)c(C(=O)N=C(N)N)nc1Cl)C(C)C` [ethylisopropylamiloride], the “potency relative to amiloride in ventricular fibrillation model” value in series [3] (compared with amiloride) is “even more potent than amiloride”.

The values above are taken from patent publication US5571842A, “Perfluoroalkyl-substituted, benzoylguanidines, a process for their preparation, their use as a medicament or diagnostic agent, and a medicament containing them” (priority 1994, dated 1996).
